What was measured:
Conditions in all cases: Compound concentration 1000.0 nM
[1] = biological target: Bone morphogenetic protein receptor type-1B (Homo sapiens) (UniProt O00238)
[2] = biological target: Phosphatidylinositol 3-kinase catalytic subunit type 3 (Homo sapiens) (UniProt Q8NEB9)
[3] = biological target: Serine/threonine-protein kinase 35 (Homo sapiens) (UniProt Q8TDR2)
[4] = biological target: Serine/threonine-protein kinase VRK2 (Homo sapiens) (UniProt Q86Y07)
[5] = biological target: Ribosomal protein S6 kinase alpha-1 (Homo sapiens) (UniProt Q15418)
Ribosomal protein S6 kinase alpha-1 (Homo sapiens), sequence (Q15418 whole entry): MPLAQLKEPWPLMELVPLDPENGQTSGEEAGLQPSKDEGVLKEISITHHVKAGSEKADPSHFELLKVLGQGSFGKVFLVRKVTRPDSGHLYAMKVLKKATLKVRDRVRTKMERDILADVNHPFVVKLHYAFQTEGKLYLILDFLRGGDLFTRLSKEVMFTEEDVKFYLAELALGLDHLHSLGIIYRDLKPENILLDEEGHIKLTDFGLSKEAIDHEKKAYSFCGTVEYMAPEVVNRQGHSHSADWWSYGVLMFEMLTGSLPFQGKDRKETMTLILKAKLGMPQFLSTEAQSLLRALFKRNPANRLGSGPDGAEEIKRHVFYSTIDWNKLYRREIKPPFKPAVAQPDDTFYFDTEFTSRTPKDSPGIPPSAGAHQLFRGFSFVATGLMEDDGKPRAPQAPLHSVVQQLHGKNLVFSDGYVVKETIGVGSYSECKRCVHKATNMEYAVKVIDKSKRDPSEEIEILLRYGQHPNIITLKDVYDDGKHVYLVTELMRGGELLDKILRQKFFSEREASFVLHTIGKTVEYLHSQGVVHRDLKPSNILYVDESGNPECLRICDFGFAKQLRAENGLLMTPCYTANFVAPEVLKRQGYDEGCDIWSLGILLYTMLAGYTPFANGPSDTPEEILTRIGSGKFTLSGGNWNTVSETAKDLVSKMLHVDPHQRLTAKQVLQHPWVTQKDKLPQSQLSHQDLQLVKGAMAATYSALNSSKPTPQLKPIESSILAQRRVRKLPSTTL

[6] = test system: Tyrosine-protein kinase ABL1 (Homo sapiens), P00519 [F317I]
[7] = biological target: AP2-associated protein kinase 1 (Homo sapiens) (UniProt Q2M2I8)
[8] = biological target: Ribosomal protein S6 kinase alpha-3 (Homo sapiens) (UniProt P51812)
Ribosomal protein S6 kinase alpha-3 (Homo sapiens), sequence (P51812 whole entry, canonical isoform): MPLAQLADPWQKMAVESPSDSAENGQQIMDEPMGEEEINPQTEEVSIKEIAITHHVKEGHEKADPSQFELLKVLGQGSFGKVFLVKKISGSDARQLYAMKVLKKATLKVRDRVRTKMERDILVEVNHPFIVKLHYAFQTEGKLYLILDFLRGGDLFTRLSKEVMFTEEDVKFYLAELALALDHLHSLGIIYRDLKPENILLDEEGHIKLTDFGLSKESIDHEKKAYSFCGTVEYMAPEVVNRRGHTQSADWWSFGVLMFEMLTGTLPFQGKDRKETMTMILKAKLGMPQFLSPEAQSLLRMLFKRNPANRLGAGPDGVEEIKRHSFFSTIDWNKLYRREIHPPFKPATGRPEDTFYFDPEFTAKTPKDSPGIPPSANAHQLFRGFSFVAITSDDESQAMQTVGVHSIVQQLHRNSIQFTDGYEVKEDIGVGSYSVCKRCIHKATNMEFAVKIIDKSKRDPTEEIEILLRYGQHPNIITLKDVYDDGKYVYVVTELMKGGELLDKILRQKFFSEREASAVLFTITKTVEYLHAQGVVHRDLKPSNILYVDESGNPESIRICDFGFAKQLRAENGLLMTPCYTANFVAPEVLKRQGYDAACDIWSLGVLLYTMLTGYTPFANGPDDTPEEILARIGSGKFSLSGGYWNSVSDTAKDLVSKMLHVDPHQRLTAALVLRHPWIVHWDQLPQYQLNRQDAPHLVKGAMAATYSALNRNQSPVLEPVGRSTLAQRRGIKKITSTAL

[9] = biological target: T1, Phosphorylase b kinase regulatory subunit alpha, liver isoform (Homo sapiens) (UniProt P46019)
T1 sequence (whole entry): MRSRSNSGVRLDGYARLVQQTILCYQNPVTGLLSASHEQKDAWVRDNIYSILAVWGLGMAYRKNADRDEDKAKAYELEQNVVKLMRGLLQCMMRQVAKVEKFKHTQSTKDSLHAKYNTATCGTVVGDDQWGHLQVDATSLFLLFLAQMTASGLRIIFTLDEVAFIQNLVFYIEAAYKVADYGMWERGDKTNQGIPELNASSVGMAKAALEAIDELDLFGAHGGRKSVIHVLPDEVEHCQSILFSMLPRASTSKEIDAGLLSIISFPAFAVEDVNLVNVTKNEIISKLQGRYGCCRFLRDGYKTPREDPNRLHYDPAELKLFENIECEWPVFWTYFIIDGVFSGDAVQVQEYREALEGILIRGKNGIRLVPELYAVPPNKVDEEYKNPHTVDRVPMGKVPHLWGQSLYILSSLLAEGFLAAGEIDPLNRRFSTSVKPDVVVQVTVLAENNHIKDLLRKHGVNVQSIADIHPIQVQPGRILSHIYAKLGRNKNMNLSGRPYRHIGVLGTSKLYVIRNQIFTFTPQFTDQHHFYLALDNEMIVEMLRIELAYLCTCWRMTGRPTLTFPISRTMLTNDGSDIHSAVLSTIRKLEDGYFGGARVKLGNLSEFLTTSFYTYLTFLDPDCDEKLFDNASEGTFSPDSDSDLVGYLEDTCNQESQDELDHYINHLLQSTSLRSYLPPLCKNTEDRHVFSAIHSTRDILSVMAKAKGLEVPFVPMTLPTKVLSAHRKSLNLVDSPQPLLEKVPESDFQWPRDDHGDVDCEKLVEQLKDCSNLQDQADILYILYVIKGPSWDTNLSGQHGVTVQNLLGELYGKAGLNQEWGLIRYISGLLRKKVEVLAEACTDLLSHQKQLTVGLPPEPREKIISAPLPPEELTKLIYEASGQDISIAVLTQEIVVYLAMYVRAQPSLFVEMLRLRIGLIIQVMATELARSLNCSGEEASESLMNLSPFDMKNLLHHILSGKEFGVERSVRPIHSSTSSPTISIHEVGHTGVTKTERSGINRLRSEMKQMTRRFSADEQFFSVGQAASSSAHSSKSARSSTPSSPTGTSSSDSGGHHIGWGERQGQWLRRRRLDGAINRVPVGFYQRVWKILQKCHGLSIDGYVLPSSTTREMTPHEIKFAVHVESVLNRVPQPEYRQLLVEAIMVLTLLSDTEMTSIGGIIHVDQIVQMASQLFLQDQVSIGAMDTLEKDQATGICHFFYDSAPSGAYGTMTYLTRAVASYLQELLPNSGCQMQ

[10] = biological target: Mast/stem cell growth factor receptor Kit (Homo sapiens) (UniProt P10721)
Mast/stem cell growth factor receptor Kit (Homo sapiens), sequence (P10721 whole entry): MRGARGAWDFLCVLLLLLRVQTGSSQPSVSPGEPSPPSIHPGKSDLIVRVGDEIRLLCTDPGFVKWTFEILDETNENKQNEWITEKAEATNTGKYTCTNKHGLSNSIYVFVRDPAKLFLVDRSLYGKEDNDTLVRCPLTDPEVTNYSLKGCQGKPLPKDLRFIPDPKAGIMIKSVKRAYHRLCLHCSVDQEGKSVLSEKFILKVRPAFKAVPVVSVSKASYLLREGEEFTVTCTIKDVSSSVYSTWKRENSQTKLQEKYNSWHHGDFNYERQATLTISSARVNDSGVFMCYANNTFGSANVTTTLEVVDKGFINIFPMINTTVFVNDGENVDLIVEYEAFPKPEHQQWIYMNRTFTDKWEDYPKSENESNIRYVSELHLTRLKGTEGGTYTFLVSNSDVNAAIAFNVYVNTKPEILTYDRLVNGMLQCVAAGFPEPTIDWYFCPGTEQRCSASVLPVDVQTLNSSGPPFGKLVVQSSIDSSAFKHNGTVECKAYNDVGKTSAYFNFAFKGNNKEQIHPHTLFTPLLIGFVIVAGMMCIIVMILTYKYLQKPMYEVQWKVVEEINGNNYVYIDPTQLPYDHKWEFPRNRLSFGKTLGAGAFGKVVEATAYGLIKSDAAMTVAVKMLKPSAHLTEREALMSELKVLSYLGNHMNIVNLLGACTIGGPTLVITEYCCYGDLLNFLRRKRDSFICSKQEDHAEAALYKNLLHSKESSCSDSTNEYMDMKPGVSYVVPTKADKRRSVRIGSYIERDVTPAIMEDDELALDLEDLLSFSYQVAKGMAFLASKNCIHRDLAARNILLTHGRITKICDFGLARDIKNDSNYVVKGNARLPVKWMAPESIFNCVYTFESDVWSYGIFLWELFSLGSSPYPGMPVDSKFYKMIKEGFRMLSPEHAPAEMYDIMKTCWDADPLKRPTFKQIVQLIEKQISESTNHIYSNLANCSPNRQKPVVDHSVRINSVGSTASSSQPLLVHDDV

[11] = test system: Receptor-type tyrosine-protein kinase FLT3 (Homo sapiens), P36888 [R834Q]
[12] = test system: Phosphatidylinositol 4,5-bisphosphate 3-kinase catalytic subunit alpha isoform (Homo sapiens), P42336 [E545A]
[13] = biological target: T2, Discoidin domain-containing receptor 2 (Homo sapiens) (UniProt Q16832)
T2 sequence (whole entry): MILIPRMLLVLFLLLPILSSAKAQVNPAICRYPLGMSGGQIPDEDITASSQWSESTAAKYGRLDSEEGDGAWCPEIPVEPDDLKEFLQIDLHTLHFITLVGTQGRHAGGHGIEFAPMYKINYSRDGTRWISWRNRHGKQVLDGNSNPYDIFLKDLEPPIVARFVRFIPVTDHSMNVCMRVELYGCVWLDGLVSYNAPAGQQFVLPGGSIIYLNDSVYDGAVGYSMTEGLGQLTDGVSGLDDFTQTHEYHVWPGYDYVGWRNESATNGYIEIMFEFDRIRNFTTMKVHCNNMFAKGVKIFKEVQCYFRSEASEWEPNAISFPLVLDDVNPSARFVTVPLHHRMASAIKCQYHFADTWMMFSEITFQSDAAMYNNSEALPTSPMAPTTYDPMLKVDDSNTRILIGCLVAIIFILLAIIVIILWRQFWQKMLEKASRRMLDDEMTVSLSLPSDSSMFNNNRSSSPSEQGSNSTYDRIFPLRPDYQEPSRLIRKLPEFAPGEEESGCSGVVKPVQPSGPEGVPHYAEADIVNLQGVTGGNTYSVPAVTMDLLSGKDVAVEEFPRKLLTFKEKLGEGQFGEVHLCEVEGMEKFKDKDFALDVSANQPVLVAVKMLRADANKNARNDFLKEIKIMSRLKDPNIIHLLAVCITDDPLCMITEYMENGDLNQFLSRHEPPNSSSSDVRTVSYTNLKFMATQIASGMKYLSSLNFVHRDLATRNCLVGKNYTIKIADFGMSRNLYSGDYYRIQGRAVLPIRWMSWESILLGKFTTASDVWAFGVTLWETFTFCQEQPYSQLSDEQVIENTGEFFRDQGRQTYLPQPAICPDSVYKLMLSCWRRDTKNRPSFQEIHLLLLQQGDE

[14] = biological target: Serine/threonine-protein kinase pim-3 (Homo sapiens) (UniProt Q86V86)
[15] = biological target: Protein-tyrosine kinase 2-beta (Homo sapiens) (UniProt Q14289)
Protein-tyrosine kinase 2-beta (Homo sapiens), sequence (Q14289 whole entry, looked up): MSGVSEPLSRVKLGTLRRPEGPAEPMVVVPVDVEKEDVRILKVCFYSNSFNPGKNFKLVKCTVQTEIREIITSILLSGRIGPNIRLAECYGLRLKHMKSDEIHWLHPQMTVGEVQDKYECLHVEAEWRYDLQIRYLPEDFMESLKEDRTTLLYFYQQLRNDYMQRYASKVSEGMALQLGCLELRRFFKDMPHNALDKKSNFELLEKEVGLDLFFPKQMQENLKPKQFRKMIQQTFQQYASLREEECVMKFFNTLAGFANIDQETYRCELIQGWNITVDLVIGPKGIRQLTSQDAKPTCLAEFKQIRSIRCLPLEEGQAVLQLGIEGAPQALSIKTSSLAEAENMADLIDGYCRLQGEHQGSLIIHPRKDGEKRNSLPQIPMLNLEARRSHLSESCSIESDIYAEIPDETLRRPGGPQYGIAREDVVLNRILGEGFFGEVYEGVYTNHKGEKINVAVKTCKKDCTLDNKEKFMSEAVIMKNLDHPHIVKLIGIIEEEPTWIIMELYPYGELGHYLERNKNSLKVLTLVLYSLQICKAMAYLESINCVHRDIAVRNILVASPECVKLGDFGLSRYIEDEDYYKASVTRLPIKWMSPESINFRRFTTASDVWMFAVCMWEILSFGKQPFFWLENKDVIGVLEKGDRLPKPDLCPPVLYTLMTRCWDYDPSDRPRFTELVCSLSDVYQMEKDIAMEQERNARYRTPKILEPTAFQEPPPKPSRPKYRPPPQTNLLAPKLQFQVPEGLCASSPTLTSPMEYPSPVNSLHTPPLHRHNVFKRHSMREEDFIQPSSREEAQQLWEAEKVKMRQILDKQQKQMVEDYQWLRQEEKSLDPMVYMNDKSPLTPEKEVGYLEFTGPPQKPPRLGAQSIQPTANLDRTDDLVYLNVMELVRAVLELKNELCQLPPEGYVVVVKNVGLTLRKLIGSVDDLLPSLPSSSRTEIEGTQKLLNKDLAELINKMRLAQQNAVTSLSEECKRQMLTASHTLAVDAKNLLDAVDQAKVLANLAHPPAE

[16] = biological target: Mitogen-activated protein kinase kinase kinase 11 (Homo sapiens) (UniProt Q16584)
[17] = biological target: Epithelial discoidin domain-containing receptor 1 (Homo sapiens) (UniProt Q08345)

Measured: residual activity

Serine/threonine-protein kinase 35 (Homo sapiens), sequence (Q8TDR2 whole entry): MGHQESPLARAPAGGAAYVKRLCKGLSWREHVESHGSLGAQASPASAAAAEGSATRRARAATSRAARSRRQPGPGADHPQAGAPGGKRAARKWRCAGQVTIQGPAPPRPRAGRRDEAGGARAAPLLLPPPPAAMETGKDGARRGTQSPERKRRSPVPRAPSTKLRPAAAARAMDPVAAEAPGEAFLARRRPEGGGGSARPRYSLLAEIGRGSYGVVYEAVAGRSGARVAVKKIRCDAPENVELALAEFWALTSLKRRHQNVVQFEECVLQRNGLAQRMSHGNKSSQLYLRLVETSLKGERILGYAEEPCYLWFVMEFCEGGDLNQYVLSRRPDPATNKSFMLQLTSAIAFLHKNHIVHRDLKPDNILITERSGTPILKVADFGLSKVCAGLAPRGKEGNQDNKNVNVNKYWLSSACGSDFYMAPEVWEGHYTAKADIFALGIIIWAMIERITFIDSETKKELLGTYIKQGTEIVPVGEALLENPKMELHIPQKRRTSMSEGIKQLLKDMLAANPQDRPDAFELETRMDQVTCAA
Bone morphogenetic protein receptor type-1B (Homo sapiens), sequence (O00238 whole entry): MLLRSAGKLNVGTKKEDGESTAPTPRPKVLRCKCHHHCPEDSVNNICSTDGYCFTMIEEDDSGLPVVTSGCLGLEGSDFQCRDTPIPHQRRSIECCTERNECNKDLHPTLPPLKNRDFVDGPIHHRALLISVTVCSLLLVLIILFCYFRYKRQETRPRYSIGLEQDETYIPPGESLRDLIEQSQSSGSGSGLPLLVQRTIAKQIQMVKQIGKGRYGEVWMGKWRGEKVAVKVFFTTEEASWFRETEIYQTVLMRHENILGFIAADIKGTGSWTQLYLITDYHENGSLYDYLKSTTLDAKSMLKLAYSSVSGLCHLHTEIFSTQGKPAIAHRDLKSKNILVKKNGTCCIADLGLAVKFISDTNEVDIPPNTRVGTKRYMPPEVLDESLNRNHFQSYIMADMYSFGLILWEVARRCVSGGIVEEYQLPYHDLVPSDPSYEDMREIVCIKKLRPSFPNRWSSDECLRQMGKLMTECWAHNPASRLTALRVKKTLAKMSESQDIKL

Cc1nc(C2CCN(C(=O)c3ccc(OC(F)(F)F)cc3N)CC2)c2ncc(N3CCN(C)CC3)cc2n1 [BAY-693]
inactive: [1] 93% | [2] 95% | [3] 100% | [4] 100% | [5] 93% | [6] 100% | [7] 100% | [8] 100% | [9] 100% | [10] 90% | [11] 100% | [12] 79% | [13] 92% | [14] 100% | [15] 100% | [16] 100% | [17] 100%

CN1CCN(c2cnc3c(C4CCN(C(=O)c5ccc(OC(F)(F)F)cc5N)CC4)ncnc3c2)CC1 [BAY-885]
inactive: [1] 100% | [2] 100% | [3] 100% | [4] 100% | [5] 100% | [6] 100% | [7] 100% | [8] 85% | [9] 100% | [10] 98% | [11] 100% | [12] 89% | [13] 100% | [14] 100% | [15] 100% | [16] 100% | [17] 100%
